Measured values taken from paper PMC11898053, “Structure-Based Identification of Non-covalent Prolyl Oligopeptidase 80 Inhibitors Targeting Trypanosoma cruzi Cell Entry” (Journal of Chemical Information and Modeling, 2025).
Read-outs that look alike come from different tables or passages of the source.

Key:
[1] = molecular target: recombinant POPTc80 (Trypanosoma cruzi, UniProt Q4E132); test: POPTc80 enzyme inhibition and kinetic assay (Suc-GPLGP-AMC fluorogenic substrate); format: biochemical
Description: The enzyme activity was assessed using the fluorogenic substrate Suc-GPLGP-AMC previously described by Santana et al.[14] A total of 20 ng of pure recombinant POPTc80 was incubated with 20 μM Suc-GPLGP-AMC in a 25 mM HEPES buffer containing 5 mM DTT at pH 7.5. The release of AMC was monitored over a period of 20 min by measuring its emission at 460 nm, following excitation at 355 nm, using a 96-well microplate fluorescence reader (M5, Molecular Devices). The IC50 values were obtained by a series of at least 9 points from 200 to 0.01 μM of the compound, plus the control. The data were subjected to a four-parameter logistic (4 PL) nonlinear regression model using GraphPad Prism 8 software to calculate the IC50. […] Active enzyme concentration was determined by titration with a chloromethyl ketone irreversible inhibitor of POPTc80.[13] All kinetic parameters were determined by nonlinear regression employing the GraphPad Prism enzyme kinetics module and Hanes-Woolf plots.[64]

[2] = Cytotoxicity assay (resazurin); format: cell-based; conditions: rat, L6 cells, pH 7.4; 72 h incubation
Description: L6 cells were cultured in 96-well plates at a density of 1 × 10^4 cells/well in 100 μL of RPMI 1640 medium supplemented with 10% heat-inactivated fetal bovine serum (FBS) and 25 mM HEPES pH 7.4, maintained at 37 °C, under a 5% CO2 atmosphere. After 24h, the compounds were diluted, starting at a concentration of 200 μM, in 100 μL of complete culture medium per well. Subsequently, 100 μL of the diluted compounds were added to the seeded cells. After 72 h of incubation, Resazurin solution (Sigma) was added to a final concentration of 20 μM and incubated for another 4h at 37 °C. Fluorescence was then measured at 570 nm (excitation) and 595 nm (emission) using a SpectraMax M5 microplate reader (Molecular Devices, Sunnyvale, CA, USA). The cytotoxic concentrations causing 50% inhibition of cell growth (CC50) were determined from data obtained in two independent experiments and calculated similarly to the EC50, as described above.

[3] = tested on: T. cruzi strain Y trypomastigotes; test: Host cell infection inhibition assay (trypomastigote entry into L6 cells); format: cell-based, Trypanosoma cruzi; conditions: 1 h preincubation, 3 h infection, 72 h culture
Description: The assay was performed as previously described by Grellier et al.,[15] with slight modifications. Briefly, L6 cells were seeded in flasks containing RPMI medium supplemented with 5% fetal bovine serum and 1% penicillin/streptomycin (Gibco 15140122) and incubated at 37 °C in a 5% CO2 atmosphere. Trypomastigotes of T. cruzi strain Y were preincubated for 1 h at 37 °C in a culture medium containing different concentrations of inhibitors (0–200 μM, five points). Subsequently, they were added to L6 cell cultures that had been previously grown for 24h in 96-well plates (1000 cells/well) at a trypomastigote-to-host cell ratio of 30:1. After 3 h incubation at 37 °C, the wells were washed three times with inhibitor-free culture medium, and the cells were maintained for 72 h without inhibitors before fixation and staining with panoptic stain. The percentage of infected cells was determined by counting at least 200 host cells under 400-fold magnification. The inhibition of host cell invasion was calculated by comparing the percentage of infected cells in treated wells to that in untreated control wells. The concentration required to inhibit 50% of invasion (EC50) was determined using a nonlinear regression model applied to dose–response curves in GraphPad Prism v.8.

[4] = tested on: T. cruzi; parameters: method as in PMID 11598112; conditions: phenotypic data; cited from earlier work
[5] = tested on: POPTc80; conditions: cited from earlier work
[6] = 20 μM Suc-GPLGP-AMC, pH 7.5, means ± SD of three replications, read-out: POPTc80 IC50
[7] = Trypanosoma cruzi, L6, inhibition of host cell invasion
[8] = inhibition of host cell invasion
[9] = four compound and five substrate concentrations, means ± SD of three replications, read-out: POPTc80 Ki

Sequence of recombinant POPTc80 (Q4E132 entry or part of it): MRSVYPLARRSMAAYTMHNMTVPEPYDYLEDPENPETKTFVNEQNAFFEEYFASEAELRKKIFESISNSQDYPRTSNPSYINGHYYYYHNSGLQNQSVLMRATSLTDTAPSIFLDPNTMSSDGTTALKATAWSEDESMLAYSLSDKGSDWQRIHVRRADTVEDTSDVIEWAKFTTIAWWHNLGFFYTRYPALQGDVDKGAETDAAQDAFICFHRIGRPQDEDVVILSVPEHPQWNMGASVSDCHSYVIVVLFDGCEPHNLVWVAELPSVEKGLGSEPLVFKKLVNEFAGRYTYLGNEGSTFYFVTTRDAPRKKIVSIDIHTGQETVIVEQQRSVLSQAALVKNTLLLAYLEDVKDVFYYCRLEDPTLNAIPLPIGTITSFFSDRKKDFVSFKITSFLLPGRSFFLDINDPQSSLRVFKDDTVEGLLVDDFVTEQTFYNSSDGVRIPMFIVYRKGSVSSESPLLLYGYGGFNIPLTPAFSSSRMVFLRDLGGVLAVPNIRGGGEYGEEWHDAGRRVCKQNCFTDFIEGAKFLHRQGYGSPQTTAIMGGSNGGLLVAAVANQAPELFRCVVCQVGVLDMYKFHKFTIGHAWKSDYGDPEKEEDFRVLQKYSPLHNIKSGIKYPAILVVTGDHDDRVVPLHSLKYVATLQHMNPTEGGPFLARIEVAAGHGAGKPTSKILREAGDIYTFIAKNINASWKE

| SMILES | IC50 [1, 6] | CC50 at 72 h [2] | EC50 [3, 7] | POPTc80 LE (ligand efficiency) [1] | further results |
| --- | --- | --- | --- | --- | --- |
| O=C(NCCc1cnn(-c2ccccc2)c1)C1CCCCN1C(=O)C1CC1 (stereo not drawn) [LC-39] | > 20 µM |  |  |  |  |
| O=C(NCCCc1nc2cc(Cl)ccc2[nH]1)C1CCCCN1C(=O)C1CC1 (stereo not drawn) [LC-40] | > 20 µM |  |  |  |  |
| O=C(NCCc1nccs1)C1CCCCN1C(=O)C1CC1 (stereo not drawn) [LC-41] | > 20 µM |  |  |  |  |
| O=C(NCCc1nc2cc(F)ccc2[nH]1)C1CCCCN1C(=O)C1CC1 (stereo not drawn) [LC-42] | > 20 µM |  |  |  |  |
| O=C(NCCOc1cccc2cccnc12)C1CCCCC1C(=O)N1CCCC1 (stereo not drawn) [LC-44] | 0.64 ± 0.1 µM | > 200 µM | 92.5 µM | 0.33 kcal/mol per heavy atoms | EC50 [3, 8]: 92.4 ± 3.74 µM; Ki [1, 9]: 0.175 ± 0.031 µM |
| O=C(NCCc1cscn1)C1CCCCC1C(=O)N1CCCC1 (stereo not drawn) [LC-45] | 0.23 ± 0.08 µM | > 200 µM | 46.7 ± 3.55 µM | 0.44 kcal/mol per heavy atoms | Ki [1, 9]: 0.054 ± 0.006 µM |
| O=C(NCCCc1ccccn1)C1CCCCC1C(=O)N1CCCC1 (stereo not drawn) [LC-46] | 0.4 ± 0.24 µM | > 200 µM | 46.6 ± 20.8 µM | 0.35 kcal/mol per heavy atoms | Ki [1, 9]: 0.513 ± 0.218 µM |
| Cc1nc2ccc(CNC(=O)C3CCCCC3C(=O)N3CCCC3)cc2[nH]1 (stereo not drawn) [LC-47] |  |  |  | 0.30 kcal/mol per heavy atoms | IC50 ([1]; read-out: POPTc80 IC50, 20 μM Suc-GPLGP-AMC, pH 7.5, means ± SD of three replications): 1.21 ± 0.32 µM; Ki ([1]; read-out: POPTc80 Ki, four compound and five substrate concentrations, means ± SD of three replications): 1.99 ± 0.26 µM |
| O=C(NCCc1cnccn1)C1CCCCC1C(=O)N1CCCC1 (stereo not drawn) [LC-48] | 0.95 ± 0.1 µM |  |  |  |  |
| Cc1csc(SCC(=O)N2CCCC2C(=O)N2CCOCC2)n1 (stereo not drawn) [LC-49] | > 20 µM |  |  |  |  |
| O=C(C1CCCN1C(=O)NCc1cc2ccccc2s1)N1CCOCC1 (stereo not drawn) [LC-50] |  | > 200 µM | 80.2 ± 5.27 µM | 0.31 kcal/mol per heavy atoms | IC50 [1]: 0.59 ± 0.19 µM; Ki [1]: 0.44 ± 0.09 µM |
| Cn1c(CNC(=O)C2CCCCC2C(=O)N2CCCC2)nc2ccccc21 (stereo not drawn) [LC-53] | 0.27 ± 0.07 µM | > 200 µM | 24.9 ± 3.45 µM | 0.35 kcal/mol per heavy atoms | Ki [1, 9]: 0.158 ± 0.044 µM |
| Cc1cccc(NC(=O)CC(=O)N2CCCC2C(=O)N2CCOCC2)c1 (stereo not drawn) [LC-54] | > 20 µM |  |  |  |  |
| O=C(C1CCCN1C(=O)CCCc1ccc(Cl)cc1)N1CCOCC1 (stereo not drawn) [LC-55] | 0.44 ± 0.08 µM | > 200 µM | 16.2 µM | 0.35 kcal/mol per heavy atoms | EC50 [3, 8]: 18.6 ± 3.79 µM; Ki [1, 9]: 0.83 ± 0.11 µM |
| Cc1nn(C)c(C)c1CCC(=O)N1CCCC1C(=O)N1CCCCC1 (stereo not drawn) [LC-56] | > 20 µM |  |  |  |  |
| O=C(C1CCCN1C(=O)Cn1sc2ccccc2c1=O)N1CCCCC1 (stereo not drawn) [LC-57] | > 20 µM |  |  |  |  |
| COC(OC)C1CCCN1C(=O)C1CCCN1C(=O)OCc1ccccc1 (stereo not drawn) [ZPPD, Z-P-prolinal dimethylacetal] |  |  |  | 0.31 kcal/mol per heavy atoms | EC50 [4]: 250 µM; IC50 [5]: 6.7 µM; Ki [5]: 1.12 ± 0.12 µM |
